Experimental findings from paper PMC9352478, “Cephalosporin as Potent Urease and Tyrosinase Inhibitor: Exploration through Enzyme Inhibition, Kinetic Mechanism, and Molecular Docking Studies” (BioMed Research International, 2022) are described below.

The IC50 is the concentration needed to halve the response being measured. By Ki is commonly meant the equilibrium dissociation constant of an inhibitor or competing ligand from its target.

Entries after “also recorded” stand apart in the source; their conditions may differ. Like-named read-outs stand apart in the source and are kept apart here.

One test addresses T1, jack bean urease (Canavalia ensiformis, UniProt P07374).
T1 construct: purchased Sigma
Put plainly: biochemical. On the procedure: To evaluate the urease enzyme activity, assay described by Weatherburn 1967 was performed. In 96-well plate, 10 μl of enzyme (jack bean urease, 5 U/ml), 40 μl buffer (100 mM urea, 0.01 M K2HPO4, 1 mM EDTA, and 0.01 M […], pH 8.2), and 20 μl of test drug were loaded. Following 15 min incubation at 37°C, 40 μl of alkali reagent (0.5%, w/v NaOH and 0.1% active chloride NaOCl) and 40 μl of phenol reagents (1%, w/v phenol and 0.005%, w/v sodium nitroprusside) were added.

Another test has as its target T2, urease (Canavalia ensiformis, UniProt P07374).
T2 construct: purchased Sigma
Kind of test: Urease enzyme kinetics and inhibition mechanism (Lineweaver-Burk, Dixon, enzyme activity vs enzyme concentration plots). The test is classed as biochemical, jack bean. The following applies: for Mode of urease inhibition: Lineweaver-Burk plot; for Reversible or irreversible urease inhibition: enzyme activity vs enzyme concentration 0.44-14 μg/ml; for ESI dissociation constant (Ki'), urease: secondary replot of Lineweaver-Burk intercept, substrate urea. On the procedure: (§1) To this end, the Lineweaver-Burk plots of 1/absorbance versus 1/urea and 1/absorbance versus 1/L-DOPA were plotted. In all kinetic studies, drug concentrations (as indicated in Lineweaver-Burk plot) and respective substrates, urea in buffer (0.063 to 2 mM) for urease and L-DOPA (0.06 to 2 mM) for tyrosinase, were added and plates were incubated for 10 min at 37°C. Later, respective enzymes were added in plates and absorbance (wavelengths same as above) was monitored for 5 min with 1 min interval. The Lineweaver-Burk plot showing type of enzyme inhibition was plotted as inverse of velocities (1/V) versus inverse of substrate concentration 1/[S] Mm^−1. Later, inhibition constant (Ki) was evaluated by both the Dixon plot and from Lineweaver-Burk plot, by secondary replot of slope versus concentrations of inhibitor.
(§2) To this end, a plot among remaining enzyme activity versus various concentrations of respective enzymes in the presence of drug concentrations (as indicated in graph) was devised as determinant of reversible or irreversible behaviour of enzyme inhibition.

In a further test the target is T3, mushroom tyrosinase (Agaricus bisporus, UniProt C7FF04).
T3 construct: purchased Sigma
Kind of test: Tyrosinase enzyme kinetics and inhibition mechanism (Lineweaver-Burk, Dixon, diphenolase activity plots). The test is classed as biochemical. The conditions noted are these: for Mode of tyrosinase inhibition: Lineweaver-Burk plot, oxidation of L-DOPA; for Reversible or irreversible tyrosinase inhibition: diphenolase activity, enzyme activity vs enzyme concentration 0.44-14 μg/ml; for ESI dissociation constant (Ki'), tyrosinase: secondary replot of Lineweaver-Burk intercept; for ESI dissociation constant (Ki'), tyrosinase / Ki: substrate L-DOPA; for Ki: secondary replot of Lineweaver-Burk slope, read-out: EI dissociation constant (Ki), tyrosinase. The method, then: as §1, §2

T3 sequence (C7FF04 1-392 limits assumed): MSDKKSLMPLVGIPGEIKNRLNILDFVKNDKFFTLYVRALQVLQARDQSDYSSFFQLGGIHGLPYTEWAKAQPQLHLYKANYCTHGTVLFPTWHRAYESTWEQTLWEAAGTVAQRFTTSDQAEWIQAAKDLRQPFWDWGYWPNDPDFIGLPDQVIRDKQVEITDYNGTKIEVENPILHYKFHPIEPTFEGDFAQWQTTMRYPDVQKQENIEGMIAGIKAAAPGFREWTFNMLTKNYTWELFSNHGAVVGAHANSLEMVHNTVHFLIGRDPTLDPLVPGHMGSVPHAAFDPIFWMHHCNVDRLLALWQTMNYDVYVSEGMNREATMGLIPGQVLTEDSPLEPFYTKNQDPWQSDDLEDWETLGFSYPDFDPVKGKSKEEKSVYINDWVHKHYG
T1 sequence (P07374 whole entry, looked up): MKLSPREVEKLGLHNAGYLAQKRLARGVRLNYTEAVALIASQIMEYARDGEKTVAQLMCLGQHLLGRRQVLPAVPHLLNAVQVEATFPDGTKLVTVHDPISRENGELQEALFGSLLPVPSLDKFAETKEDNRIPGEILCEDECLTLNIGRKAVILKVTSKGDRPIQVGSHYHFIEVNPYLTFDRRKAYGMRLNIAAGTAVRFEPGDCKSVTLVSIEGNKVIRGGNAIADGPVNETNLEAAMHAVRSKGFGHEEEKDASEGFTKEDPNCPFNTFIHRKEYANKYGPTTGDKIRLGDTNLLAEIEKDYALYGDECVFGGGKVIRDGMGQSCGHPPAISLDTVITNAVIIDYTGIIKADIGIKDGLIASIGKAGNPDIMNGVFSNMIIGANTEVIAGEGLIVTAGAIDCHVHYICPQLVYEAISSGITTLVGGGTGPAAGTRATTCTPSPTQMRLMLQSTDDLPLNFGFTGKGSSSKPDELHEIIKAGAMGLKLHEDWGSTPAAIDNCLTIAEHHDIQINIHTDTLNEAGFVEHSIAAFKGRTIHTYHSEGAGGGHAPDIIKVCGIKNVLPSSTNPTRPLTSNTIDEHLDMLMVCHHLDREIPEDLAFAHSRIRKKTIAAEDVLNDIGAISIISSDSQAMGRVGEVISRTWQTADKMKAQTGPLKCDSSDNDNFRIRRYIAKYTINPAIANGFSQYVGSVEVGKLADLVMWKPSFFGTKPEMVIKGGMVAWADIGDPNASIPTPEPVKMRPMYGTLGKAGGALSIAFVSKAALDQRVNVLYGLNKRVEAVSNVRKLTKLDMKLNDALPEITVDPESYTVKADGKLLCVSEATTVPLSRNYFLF
T2 sequence (P07374 whole entry, looked up): as above

At jack bean urease, `CO/N=C(\C(=O)N[C@@H]1C(=O)N2C(C(=O)O)=C(COC(N)=O)CS[C@H]12)c1ccco1` [Cefuroxime] had a half-maximal inhibitory concentration (IC50) of 180 ± 9 µM.
Same read-out and setting: as for `C=CC1=C(C(=O)O)N2C(=O)[C@@H](NC(=O)/C(=N\OCC(=O)O)c3csc(N)n3)[C@H]2SC1` [Cefixime trihydrate], the figure is 180 ± 14 µM.
Still for that read-out and setting: under `CC1=C(C(=O)O)N2C(=O)[C@@H](NC(=O)[C@H](N)c3ccccc3)[C@H]2SC1` [Cephalexin] stands 370 ± 46 µM.
In turn, `CO/N=C(\C(=O)N[C@@H]1C(=O)N2C(C(=O)O)=C(COC(C)=O)CS[C@H]12)c1csc(N)n1` [Cefotaxime sodium] gave a 50% inhibitory concentration (IC50) on jack bean urease of 60 ± 4 µM. At urease, the inhibition constant (Ki) amounted to 120 µM; the “Mode of urease inhibition” value is reported as “competitive”; the “Reversible or irreversible urease inhibition” value is listed as “irreversibly”; the “ESI dissociation constant (Ki'), urease” value came out at 30000 µM. Further, on mushroom tyrosinase, the “Mode of tyrosinase inhibition” value is reported as “mixed-type, preferentially competitive”; the “Reversible or irreversible tyrosinase inhibition” value is “irreversibly; also recorded: irreversible”; the “ESI dissociation constant (Ki'), tyrosinase” value stood at 800 µM; the inhibition constant (Ki) stood at 70 µM.
Molecule `CC(C)(O/N=C(\C(=O)N[C@@H]1C(=O)N2C(C(=O)[O-])=C(C[n+]3ccccc3)CS[C@H]12)c1csc(N)n1)C(=O)O` [Ceftazidime] returned a 50% inhibitory concentration (IC50) at jack bean urease of 91 ± 7 µM.
On to `CC1=C(C(=O)O)N2C(=O)[C@@H](NC(=O)[C@H](N)c3ccc(O)cc3)[C@H]2SC1` [Cefadroxil], for which the IC50 on jack bean urease stood at 220 ± 6 µM.
The molecule `CO/N=C(\C(=O)N[C@@H]1C(=O)N2C(C(=O)O)=C(CSc3nc(=O)c(=O)[nH]n3C)CS[C@H]12)c1csc(N)n1` [Ceftriaxone sodium] registered an IC50 against jack bean urease of 80 ± 4 µM. Also, on urease, affinity was put at a Ki of 700 µM; the “Mode of urease inhibition” value is given as “competitive”; the “Reversible or irreversible urease inhibition” value was “irreversibly”; the “ESI dissociation constant (Ki'), urease” value came to 6000 µM. Further, on mushroom tyrosinase, the “Mode of tyrosinase inhibition” value is reported as “mixed-type, preferentially competitive”; the “Reversible or irreversible tyrosinase inhibition” value is on record as “irreversibly; also recorded: irreversible”; the “ESI dissociation constant (Ki'), tyrosinase” value is 600 µM; the inhibition constant Ki turned out to be 100 µM.
In turn, `COCC1=C(C(=O)OC(C)OC(=O)OC(C)C)N2C(=O)[C@@H](NC(=O)/C(=N\OC)c3csc(N)n3)[C@H]2SC1` (stereo partly shown) [Cefpodoxime proxetil] came in with an IC50 at jack bean urease of 100 ± 14 µM.
On the same count and under the same terms, as for `CC1=C(C(=O)O)N2C(=O)[C@@H](NC(=O)[C@H](N)C3=CCC=CC3)[C@H]2SC1` [Cephradine], the figure is 120 ± 9 µM.
The same measure, in the same setting: under `N[C@@H](C(=O)N[C@@H]1C(=O)N2C(C(=O)O)=C(Cl)CS[C@H]12)c1ccccc1` [Cefaclor] stands 170 ± 16 µM.
Regarding `NC(N)=S` [Thiourea], the concentration for half-maximal inhibition (IC50) at jack bean urease (jack bean urease 5 U/ml, 100 mM urea, pH 8.2, OD625 nm, read-out: Jack bean urease inhibition IC50 ± SEM) is 19 ± 2 µM.
At jack bean urease, `CO/N=C(\C(=O)N[C@@H]1C(=O)N2C(C(=O)[O-])=C(C[N+]3(C)CCCC3)CS[C@H]12)c1csc(N)n1` [Cefepime] registered a 50% inhibitory concentration (IC50) of 190 ± 37 µM.
